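Interpolation was linear, between the two tested concentrations surrounding the appropriate level; five concentrations were tested over 48 hours in 96-well plates. TGI denotes the concentration required for complete inhibition of growth.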
Experiments:
Assay in all cases: DTP human tumour cell line panel, 48 h
[1] = tested on: SF-539 CNS
[2] = tested on: SR leukemia
[3] = tested on: MOLT-4 leukemia
[4] = tested on: MALME-3M melanoma
[5] = tested on: M14 melanoma
[6] = tested on: SNB-19 CNS
[7] = tested on: HS 578T breast
[8] = tested on: NCI-H23 lung
[9] = tested on: SF-295 CNS
[10] = tested on: MDA-N
[11] = tested on: 786-0 renal
[12] = tested on: U251 CNS
[13] = tested on: TK-10 renal
[14] = tested on: PC-3 prostate
[15] = tested on: OVCAR-5 ovarian
[16] = tested on: SF-268 CNS
[17] = tested on: OVCAR-4 ovarian
[18] = tested on: BT-549 breast
[19] = tested on: HCT-15 colon
[20] = tested on: NCI-H226 lung

SMILES | TGI [1] | TGI [2] | TGI [3] | TGI [4] | TGI [5] | TGI [6] | TGI [7] | TGI [8] | TGI [9] | TGI [10] | TGI [11] | TGI [12] | TGI [13] | TGI [14] | TGI [15] | TGI [16] | TGI [17] | TGI [18] | TGI [19] | TGI [20]
CCC(C)C(C(=O)N/N=C1/SCC(=O)N1c1ccccc1)C(=O)N/N=C1/SCC(=O)N1c1ccccc1 (stereo unspecified) | > 100 µM | > 100 µM | > 100 µM | 44.7 µM | > 100 µM | > 100 µM | > 100 µM | > 100 µM | > 100 µM | 94.6 µM | > 100 µM | > 100 µM | > 100 µM | > 100 µM | > 100 µM | > 100 µM | 33.3 µM | > 100 µM | > 100 µM | 
CC(=O)C(I(OS(=O)(=O)c1ccc(C)cc1)c1ccccc1)=P(c1ccccc1)(c1ccccc1)c1ccccc1 | 39.1 µM |  | > 100 µM | 30 µM | 59.3 µM | > 100 µM | 68.8 µM | 42.7 µM | > 100 µM | 33.2 µM | > 100 µM | 98.5 µM | > 100 µM | > 100 µM | 60.2 µM | 80.4 µM | 37 µM | 46.3 µM | > 100 µM | 38.8 µM
CC(C)(C)O/C=C1/C(=O)OC2C[C@@H](O[Si](C)(C)C(C)(C)C)CC12 (stereo partly specified) |  |  |  | > 100 µM | > 100 µM | > 100 µM |  | > 100 µM | > 100 µM | > 100 µM | > 100 µM | > 100 µM | > 100 µM | > 100 µM | > 100 µM | > 100 µM | > 100 µM | > 100 µM | > 100 µM | > 100 µM
COc1cc(S(=O)(=O)Nc2nc(-c3ccc(N4C(=O)CSC4c4cccs4)cc3)cs2)ccc1Cl (stereo unspecified) | > 100 µM | 96.8 µM | > 100 µM | > 100 µM | > 100 µM | > 100 µM | > 100 µM | 89 µM | > 100 µM | > 100 µM | > 100 µM | > 100 µM | > 100 µM | > 100 µM | > 100 µM | > 100 µM | 97.7 µM |  | 46.7 µM | > 100 µM
COc1cc(OCc2nc3ccccc3n3cccc23)cc(OC)c1OC | > 100 µM |  | 14.3 µM | > 74.4 µM | > 78.3 µM | > 100 µM | > 100 µM | > 100 µM | > 100 µM | > 100 µM | > 74.3 µM | > 100 µM | > 88.6 µM | > 100 µM | > 100 µM | > 100 µM | > 63 µM | > 100 µM | > 100 µM | 52.4 µM
COc1cccc(OC/C(N=Cc2cccnc2)=N/NC(=O)c2ccncc2)c1 | > 100 µM |  | > 100 µM | > 100 µM | > 100 µM | > 100 µM | > 100 µM | > 100 µM | > 100 µM | > 100 µM | > 100 µM | > 100 µM | > 100 µM | > 100 µM | > 100 µM | > 100 µM | > 100 µM | > 100 µM | > 100 µM | > 100 µM
